# Data as given in patent US9163063B2, “Peptides and nanoparticles for therapeutic and diagnostic applications” (Trustees of Dartmouth College, priority 2009, dated 2015).
# Peptide text beside a SMILES is read from it. * marks the point of attachment. Benzoyl(4-Br) = O=C(c1ccc(Br)cc1)*; Myristoyl = CCCCCCCCCCCCCC(=O)*
# Experiments:
# [1] = tested on: AsPC1 cells; test: MTS cell viability assay (Example 7); assay type: cell-based, human; conditions: for reduced cell viability observed: 50-200 μM
# Procedure: (§1) To assess the cytotoxic and cell viability effects of GIPC inhibitor peptides, an MTS assay was conducted in pancreatic cancer cells (AsPC1) and breast cancer cells (MDA-MB-231-WT) using CR1023 and CR1166, as well as control peptides (CR1162, CR1164, CR2055 and CR2059) in a dose dependent manner (50-200 μM).
# [2] = tested on: MDA-MB-231-WT cells; test: MTS cell viability assay (Example 7); assay type: cell-based; conditions: for reduced cell viability observed: 50-200 μM
# Procedure: as §1
# [3] = tested on: AsPC1 cells; test: Apoptosis assay (annexin/PI); assay type: cell-based, human; conditions: for apoptosis induced / reduction in live AsPC1 cells: within 48 h; for induction of apoptosis: 50-200 μM
# Procedure: (§2) MDA231-WT and AsPC1 ells were seeded into 6-well plates at a density of 4×10^5/2 ml of RPMI medium per well and grown overnight. Next day cells were treated with GIPC inhibitor peptides in a time dependent (48 h-96 h) and dose dependent manner (50-200 μM). After treatment with definite time, cells were extensively washed with PBS and tested with the Annexin V-FITC Apoptosis Detection Kit (Biovision, Cat. No. #K101-100) per the manufacturer's instructions.
# [4] = tested on: MDA-MB-231-WT cells; test: Apoptosis assay (annexin/PI); assay type: cell-based; conditions: for apoptosis induced: within 48 h; for induction of apoptosis: 50-200 μM
# Procedure: as §2
# [5] = tested on: EGFR; test: Western blot of EGFR in AsPC1 cells; assay type: cell-based, human; conditions: 48 hours; 50, 100, 200 μM
# Procedure: (§3) AsPC1, MDA231-WT cells were grown in a 100 mm tissue culture dish in RPMI medium containing serum, L-glutamine and antibiotics. At 60% confluency cells were treated with GIPC inhibitor peptides in a dose dependent and time dependent manner. Untreated and GIPC inhibitor peptide-treated AsPC1 and MDA231-WT cells were washed thrice with 10 ml of cold PBS, lysed with ice-cold RIPA buffer along with halt and PIC incubated on ice for 10 min, and centrifuged at 4° C. for 10 min. The expression of IGF-1R and EGFR protein was determined in untreated and peptides treated AsPC1 and MD231A cells by Western blot analysis according to standard protocols. Briefly, protein concentration in the cell lysates was measured using Bradford assay kit (Bio-rad). The proteins were loaded on a 10% SDS-PAGE gel for separation and transferred to a membrane. […]
# (§4) Since GIPC association with IGF-1R is important for IGF-1R stability, the effects of CR1023 and CR1166 on the expression of both IGF-1R and EGFR were investigated. The levels of EGFR and IGF-1R in pancreatic cancer cells (AsPC1) and breast cancer cells (MDA-MB-231A-WT) were analyzed using Western blot analysis after treatment with GIPC inhibitor peptides or control peptides for 48 hours at different concentrations (50 μM, 100 μM and 200 μM) (FIG. 21, A and B). […]
# [6] = tested on: IGF-1R; test: Western blot of IGF-1R in AsPC1 cells; assay type: cell-based, human; conditions: 48 hours; 50, 100, 200 μM
# Procedure: as §3, §4
# [7] = tested on: EGFR; test: Western blot of EGFR in MDA-MB-231A-WT cells; assay type: cell-based; conditions: 48 hours; 50, 100, 200 μM
# Procedure: as §3, §4
# [8] = tested on: IGF-1R; test: Western blot of IGF-1R in MDA-MB-231A-WT cells; assay type: cell-based; conditions: 48 hours; 50, 100, 200 μM
# Procedure: as §3, §4
# [9] = molecular target: T1, interaction between IGF-1R and GIPC (Homo sapiens, UniProt O14908); test: Immunoprecipitation for GIPC, immunoblot against IGF-IR in AsPC1 cells; assay type: cell-based; conditions: for interaction between IGF-1R and GIPC: IP with GIPC antibody (N-19); for protein levels of IGF-IR: in vitro model
# T1 construct: endogenous in cells; host or cells: AsPC1
# T1 sequence (O14908 1-333): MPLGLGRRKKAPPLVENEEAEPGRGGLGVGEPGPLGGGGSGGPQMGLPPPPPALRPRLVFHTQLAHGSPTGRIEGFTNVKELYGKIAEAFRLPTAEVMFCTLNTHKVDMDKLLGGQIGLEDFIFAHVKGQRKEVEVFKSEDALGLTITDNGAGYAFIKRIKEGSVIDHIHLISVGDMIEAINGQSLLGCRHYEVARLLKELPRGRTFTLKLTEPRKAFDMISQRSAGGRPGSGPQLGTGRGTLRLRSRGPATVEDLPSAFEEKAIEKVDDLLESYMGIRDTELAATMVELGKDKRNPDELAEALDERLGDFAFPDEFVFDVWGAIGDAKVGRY
# Procedure: AsPC1 cells were treated and lysate was collected in RIPA buffer. After immunoprecipitation with a GIPC antibody (N-19), western blot analysis was performed.
# [10] = molecular target: T2, co-localization of GIPC and IGF-1R (Homo sapiens, UniProt O14908); test: Duolink II co-localization of GIPC and IGF-1R in AsPC1 cells; assay type: cell-based
# T2 construct: endogenous in cells; host or cells: AsPC1
# T2 sequence (O14908 1-333): T1 sequence (O14908 1-333)
# Procedure: Co-localization experiments were performed using a Duolink II Fluorescence kit to visualize the co-localization of GIPC and IGF-1R in control untreated AsPC1 cells (FIG. 23). Red fluorescence indicated the co-localization of GIPC and IGF-1R in AsPC1 cells.
# [11] = tested on: AsPC1 cells expressing GFP/luciferase; test: Pancreatic tumor model, intratumoral injections; assay type: in vivo, female SCID mice; conditions: for pancreatic tumor growth over time compared to control peptides: intratumoral, alternate days, one month
# Procedure: (§5) In vivo tumor model experiments using female SCID mice were performed to test the effectiveness of GIPC inhibitor peptides. The pancreatic tumor model was established by injecting 5×10^6 AsPC1 cells expressing GFP/luciferase resuspended in 50 μL of sterile PBS into the mouse right flank. Similarly, the breast tumor growth model was established in mice by injecting 2×10^6 MD-MBA-231-WT cells resuspended in 50 μL of sterile PBS into the mammary fat pad of the female SCID mice. When tumors volumes reached 50-100 mm^3, the GIPC inhibitor peptides and controls were intratumorally injected on alternate days over a period of one month. In order to monitor the pancreatic tumor burden, the mice were non-invasively imaged using the IVIS 200 Bioluminescence Imaging system (Xenon Corp.) before sacrificing. After bioluminescence imaging, the effect of the peptides on tumor growth (weight and volume) and EGFR and IGF-1R expression from tumors collected from different groups were examined. Tumors collected after sacrificing the SCID mice were measured by digital slide calipers using the (½ab^2) formula.
# [12] = tested on: MD-MBA-231-WT cells; test: Breast tumor growth model, intratumoral injections; assay type: in vivo, female SCID mice
# Procedure: as §5
SMILES,reduced cell viability observed [1],reduced cell viability observed [2],reduction in live AsPC1 cells ([3]; 50 μM),reduction in live AsPC1 cells ([3]; 200 μM),induction of apoptosis [3],apoptosis induced ([4]; 50 μM),apoptosis induced ([4]; 200 μM),induction of apoptosis [4],EGFR expression compared to control peptides [5],IGF-1R expression compared to control peptides [6],EGFR expression compared to control peptides [7],IGF-1R expression compared to control peptides [8],interaction between IGF-1R and GIPC [9],protein levels of IGF-IR [9],red fluorescence (co-localization of GIPC and IGF-1R) compared to control [10],pancreatic tumor growth over time compared to control peptides [11],other results
"CCCCCCCCCCCCCC(=O)N1CCC[C@H]1C(=O)N[C@@H](CO)C(=O)N[C@@H](CCC(N)=O)C(=O)N[C@@H](CO)C(=O)N[C@@H](CCCCNC(=O)c1ccc(Br)cc1)C(=O)N[C@@H](CO)C(=O)N[C@@H](CCCCNC(=O)c1ccc(Br)cc1)C(=O)N[C@@H](C)C(=O)O [CR1166, My-PSQSK(4-Br-ben)SK(4-Br-ben)A] (Myristoyl-PSQSK(Benzoyl(4-Br))SK(Benzoyl(4-Br))A-OH; C-terminus assumed)",Reduced cell viability,Reduced cell viability,~53%,~35%,significant induction of apoptosis,~54%,~61%,significant induction of apoptosis,reduced,reduced,reduced,reduced,interfere with the interaction,reduced protein levels of IGF-IR significantly,reduced red fluorescence,significantly suppressed the pancreatic tumor growth,"cell viability reduced more compared to CR1023 ([1]; 50 μM): ~50%; cell viability reduced more compared to CR1023 ([1]; 100 μM): ~45%; cell viability reduced more compared to CR1023 ([1]; 200 μM): ~35%; cell viability reduced more compared to CR1023 ([2]; at 50 μM, 100 μM, and 200 μM): 30-33%; apoptosis induced ([3]; 50 μM): ~47%; apoptosis induced ([3]; 200 μM): ~65%; EGFR expression in tumor compared to control CR2055 ([11]; pancreatic tumors): significant reduction; IGF-1R expression in tumor compared to control CR2055 ([11]; pancreatic tumors): significant reduction; tumor regression as compared to control DMSO-PBS-treated mice ([11]; pancreatic tumors): ~4.8 times; tumor regression as compared to mice treated with CR1023 ([11]; pancreatic tumors): ~2.3 times; tumor regression as compared to mice treated with CR2055 ([11]; pancreatic tumors): ~3.8 times; tumor regression as compared to mice treated with CR2059 ([11]; pancreatic tumors): ~3.9 times; breast tumor regression as compared to mice treated with CR1023 ([12]; CR1023 data not shown): ~1.4 times; IGF-1R expression in tumor compared to CR2059 ([12]; breast tumors): significant reduction; breast tumor growth over time compared to controls ([12]; intratumoral, alternate days): significantly suppressed breast tumor growth; breast tumor regression as compared to control DMSO-PBS-treated mice ([12]; mouse, in vivo): ~2.7 times; breast tumor regression as compared to mice treated with CR2055 ([12]; mouse, in vivo): ~2.1 times; breast tumor regression as compared to mice treated with CR2059 ([12]; mouse, in vivo): ~2.2 times"
"CCCCCCCCCCCCCC(=O)N1CCC[C@H]1C(=O)N[C@@H](CO)C(=O)N[C@@H](CCC(N)=O)C(=O)N[C@@H](CO)C(=O)N[C@@H](CO)C(=O)N[C@@H](CO)C(=O)N[C@@H](CCC(=O)O)C(=O)N[C@@H](C)C(=O)O [CR1023, My-PSQSSSEA] (Myristoyl-PSQSSSEA-OH; C-terminus assumed)",Reduced cell viability,Reduced cell viability,~78%,~62%,significant induction of apoptosis,~30%,~35%,significant induction of apoptosis,reduced,reduced,reduced,reduced,interfere with the interaction,reduced protein levels of IGF-IR significantly,reduced red fluorescence,significantly suppressed the pancreatic tumor growth,–
